Results: patent publication US20130303562A1, “CHEMICAL AND RNAI SUPPRESSORS OF NEUROTOXICITY IN HUNTINGTON'S DISEASE” (priority 2010, published 2013)
Entries after “also recorded” stand apart in the source; their conditions may differ. Read-outs that look alike come from different tables or passages of the source.

How the values were obtained:
[1] = test system: Htt-Q138 expressing Drosophila primary neural cultures; assay: Morphological analysis of small-molecule treated Htt-Q138 primary neural cultures versus Htt-Q15 controls; type: cell-based; details: for Morphology profiles of Q138 expressing neurons (effect in words): Htt-Q138 primary neural cultures, compared with Htt-Q15 controls
Protocol: Primary Cell Culture. Elav^c155-GAL4 virgins were collected en-masse and crossed to either UAS-Htt-Q138-mRFP^1, UAS-mCD8-GFP or UAS-HttQ15-mRFP^1, UAS-mCD8-GFP males to generate embryos for primary culture preparation.
Compound screening: Primary cultures were re-suspended directly in Shields and Sang M3 media (Sigma) supplemented with 10 U/mL penicillin, 10 μg/mL streptomycin, 200 ng/mL insulin, and 5% fetal bovine serum. […] The neuroblast density was 18,500 cells/well. The primary screen was carried out in duplicate and hits were validated with 12 additional replicate wells.
Microscopy: For high-content screening mature 7-day old cultures were imaged with an ImageXpress^MICRO robotic microscope (Molecular Devices, Sunnyvale, Calif.) using a 10× objective and FITC/Cy3 filter sets. […] Laser-based autofocusing was used to locate plate bottoms, and then image-based focusing used to resolve fluorescently labeled neurons over a 48 μm range. The GFP and mRFP channels were imaged in the same focal plane, with exposure times of 850 and 400 ms respectively. Three sites were imaged per well for each treatment group, and the screen was done in duplicate. For confocal microscopy of primary cultures, neuroblasts were plated on poly-L-lysine coated chambered cover slips (LabTekII, 0.8 cm^2/well) at 18,300 cells/well in 50 μL volume. Small molecules were added to cultures 24 hours after plating, incubated for 7 days, and then imaged with a Leica TCS-SP2 confocal LSM microscope.
Digital Image Analysis of High Content Screening Data Sets: Neuronal morphological analysis and Htt aggregate quantification for automated microscopy images was performed as previously described (Schulte et al., Wu et al.). In brief, Htt-Q138 aggregates were quantified as the total number of pixels/image with an intensity higher than an empirically set threshold. Statistical analysis was conducted using a two sample t-test. To quantify neuronal morphologies, cell body clusters (neuromeres) and neurites were extracted from images using our custom algorithms (Wu et al.). […] Absolute counts of neuromeres/bin were tabulated for all images. Neurite segment lengths were similarly clustered into three groups (short, medium, and long) using the K-means method and then quantified. Cell cluster and neurite counts were converted into percentages to control for any variation in cell number between wells arising from pipetting error. Mean neuromere area and neurite length for each image were also calculated to give a total of eight morphological metrics for image morphology quantification. For statistical analysis, p-values for each morphological feature were calculated using a two sample t-test (e.g. small neuromere feature of Htt-Q138 drug-treated cultures versus small neuromere feature of Htt-Q15 DMSO cultures). […] The combined statistic has a χ^2 distribution with 2k degrees of freedom under the joint null hypothesis. This method works well in cases where the evidence against the null-hypothesis is spread across different features. Excluded from analysis were compound-treated wells with <6 images, out-of-focus images, or images that lacked cell profiles altogether.

[2] = test system: Htt138Q aggregate formation; assay: Htt-Q138 aggregation-inhibition screening of small molecules in Drosophila primary neural cultures (automated microscopy); type: cell-based; details: for Htt-Q138 aggregation (effect in words): Htt-Q138 primary neural cultures; for Htt-Q138 aggregate formation (effect in words): range of concentrations (56 μM, 5.6 μM)
Protocol: Primary Cell Culture. Elav^c155-GAL4 virgins were collected en-masse and crossed to either UAS-Htt-Q138-mRFP^1, UAS-mCD8-GFP or UAS-HttQ15-mRFP^1, UAS-mCD8-GFP males to generate embryos for primary culture preparation. Neuroblasts were isolated as described (Sepp et al., 2008).
Compound screening: Primary cultures were re-suspended directly in Shields and Sang M3 media (Sigma) supplemented with 10 U/mL penicillin, 10 μg/mL streptomycin, 200 ng/mL insulin, and 5% fetal bovine serum. […] of compounds from arrayed small-molecule libraries (NINDS Custom Collection 2, Prestwick) Collection, BIOMOL2 ICCB-Longwood Known Bioactives High Concentration, various concentration from 1-15 mM in DMSO) were applied to 50 μL of cultures 24 hours after plating on optical bottom 384-well plates (Corning 3712). The neuroblast density was 18,500 cells/well. The primary screen was carried out in duplicate and hits were validated with 12 additional replicate wells.
(§1) Microscopy: For high-content screening mature 7-day old cultures were imaged with an ImageXpress^MICRO robotic microscope (Molecular Devices, Sunnyvale, Calif.) using a 10× objective and FITC/Cy3 filter sets. Images were 1392×1040 pixels, or 897×670 micrometers. Laser-based autofocusing was used to locate plate bottoms, and then image-based focusing used to resolve fluorescently labeled neurons over a 48 μm range. The GFP and mRFP channels were imaged in the same focal plane, with exposure times of 850 and 400 ms respectively. Three sites were imaged per well for each treatment group, and the screen was done in duplicate. For confocal microscopy of primary cultures, neuroblasts were plated on poly-L-lysine coated chambered cover slips (LabTekII, 0.8 cm^2/well) at 18,300 cells/well in 50 μL volume. Small molecules were added to cultures 24 hours after plating, incubated for 7 days, and then imaged with a Leica TCS-SP2 confocal LSM microscope.
Digital Image Analysis of High Content Screening Data Sets: Neuronal morphological analysis and Htt aggregate quantification for automated microscopy images was performed as previously described (Schulte et al., Wu et al.). In brief, Htt-Q138 aggregates were quantified as the total number of pixels/image with an intensity higher than an empirically set threshold. Statistical analysis was conducted using a two sample t-test. To quantify neuronal morphologies, cell body clusters (neuromeres) and neurites were extracted from images using our custom algorithms (Wu et al.). […] Absolute counts of neuromeres/bin were tabulated for all images. Neurite segment lengths were similarly clustered into three groups (short, medium, and long) using the K-means method and then quantified. Cell cluster and neurite counts were converted into percentages to control for any variation in cell number between wells arising from pipetting error. Mean neuromere area and neurite length for each image were also calculated to give a total of eight morphological metrics for image morphology quantification. For statistical analysis, p-values for each morphological feature were calculated using a two sample t-test (e.g. small neuromere feature of Htt-Q138 drug-treated cultures versus small neuromere feature of Htt-Q15 DMSO cultures). The resultant morphological p-values for individual features were then integrated into a single p-value using the Fisher method (Fisher 1932) defined by the equation χ^2=−2Σi=1^k loge(pi), where k represents independent tests, pi is the p-value of the i-th feature. The combined statistic has a χ^2 distribution with 2k degrees of freedom under the joint null hypothesis. This method works well in cases where the evidence against the null-hypothesis is spread across different features. Excluded from analysis were compound-treated wells with <6 images, out-of-focus images, or images that lacked cell profiles altogether.

[3] = test system: HD larvae (Elav^c155-GAL4; UAS-Htt-Q138/+); assay: In vivo rescue: viability of HD larvae after 5-day drug dosing in liquid culture; set-up: species or system Drosophila; details: larvae reared in liquid culture, 5-day dosing, compared to DMSO-treated controls
Protocol: In vivo Rescue studies: For small molecule in vivo rescue studies, Elav^c155; UAS-Htt-Q138-mRFP^1, UAS-mCD8-GFP/+1st instar larvae were collected en-masse and dispensed into liquid yeast media (10 larvae/well) containing therapeutic agents at three different concentrations as described in the results (n=8 replicas/concentration). Cultures were reared at 21° C. and larval viability was assessed after 5 days and the mean number of living Htt138Q larvae (i.e. GFP^+, Htt138QmRFP^+, and mobile) was tabulated, and expressed as a percentage of total larvae/well. For genetic rescue studies with lkb1, two Htt138Q strains were utilized: a strong expressing line, UAS-Htt138QmRFP^1 which is pharate lethal when crossed to Elav^c155, and a weaker expressing line, UAS-Htt138QmRFP^2 which survives to adulthood and is viable for a number of weeks. Using the strong line, pharate lethality at 25° C. was calculated after lkb1 (lkb1^4B1-11 and lkb1^4A4-2 alleles) was introduced into an Elav^c155, UAS-Htt/+background. Lkb1^4B1-11 is a premature truncation allele (Q98>Stop), and lkb1^4A4-2 is an EMS null allele (589 b.p. deletion removing 150 b.p. of the 5′ UTR, the start codon and the beginning of the open reading frame). For Top1 in vivo analysis, Elav^c155, Top^112 recombinants were generated and crossed to UAS-Htt138QmRFP^1.
To further examine the RNAi/small molecule screen hits, we assayed in vivo efficacy by testing their ability to rescue lethality in our Drosophila HD model. […] Specific inhibitors of Lkb1 were not available for in vivo testing.

[4] = test system: Htt-Q138 expressing primary neural cultures; assay: In vitro validation of screen hits by confocal microscopy of primary cultures on glass coverslips; type: cell-based, Drosophila; details: for Aggregate formation (confocal): 56 μM, Htt-Q138 expressing cultures
Source text: FIG. 4. In vitro validation of small molecule screen hits. Confocal microscopy images of primary cultures plated on glass coverslips and treated with either DMSO (A,B) or test compounds (C,D). […] HttQ15 is soluble and fills most neurite processes. […] (E) Quantification of altered Htt138Q distribution following Camptothecin treatment.
as §1

NP-3 mouse HD model = details: cited from earlier work
[5] = Solubility / precipitation in cultures; type: physicochemical; details: liquid cultures

C=C1[C@@H](O)[C@@H]2O[C@]3(CC[C@H](/C=C/[C@@H](C)[C@@H]4CC(C)=C[C@@]5(O[C@H](C[C@@](C)(O)C(=O)O)CC[C@H]5O)O4)O3)CC[C@H]2O[C@@H]1[C@@H](O)C[C@H](C)[C@H]1O[C@@]2(CCCCO2)CC[C@H]1C [Okadaic acid]
Morphology profiles of Q138 expressing neurons (effect in words) [1]: exacerbated the mutant Htt-Q138 mutant morphology
Htt-Q138 aggregation (effect in words) [2]: suppress Htt-Q138 aggregation

CCC1(O)C(=O)OCc2c1cc1n(c2=O)Cc2cc3cc(O)ccc3nc2-1 (stereo not shown) [10-OH-Camptothecin]
Viability of Htt-Q138 expressing larvae / rescue of Htt-Q138 lethality ([3]; listed as 10-Hydroxycamptothecin): increased larval longevity in vivo, but to a lesser extent than Rapamycin; also recorded: more efficacious than Camptothecin
Aggregate formation (confocal) [4]: reduces aggregate formation
Dystrophic morphology profiles (effect in words) [1]: partially reverting dystrophic morphology profiles
Morphology profiles of Q138 expressing neurons (effect in words) [1]: Rescue of Htt-Q138 mutant morphology
Htt-Q138 aggregate formation (effect in words) [2]: rescue aggregate formation

O=C1Nc2ccc(I)cc2/C1=C/c1cc(Br)c(O)c(Br)c1 [GW5074]
Striatal degeneration (NP-3 mouse HD model): reduced striatal degeneration
Neurotoxic properties / morphological defects in cultures [1]: reduced axon outgrowth, neuromere size, and suppressed GFP expression
Morphology profiles of Q138 expressing neurons (effect in words) [1]: none reverted the morphology profiles of Q138 expressing neurons towards normal
Htt-Q138 aggregation (effect in words) [2]: reduced Htt-Q138 aggregation; also recorded: inhibited mutant Hu aggregate formation

CC[C@@]1(O)C(=O)OCc2c1cc1n(c2=O)Cc2cc3ccccc3nc2-1 [Camptothecin]
Precipitation when added to cultures [5]: readily precipitates when added to cultures
Viability of Htt-Q138 expressing larvae / rescue of Htt-Q138 lethality [3]: increased larval longevity in vivo, but to a lesser extent than Rapamycin
Aggregate formation (confocal) [4]: reduces aggregate formation
Number of Htt138Q pixels/neuronal area (Htt-RFP pixels/neuromere and neurite GFP pixels) ([4]; mutant cultures, p<0.05, n=4): increase
Neurotoxic properties / morphological defects in cultures ([1]; primary neural cultures): did not observe morphological defects
Dystrophic morphology profiles (effect in words) ([1]; range of concentrations (56 μM, 5.6 μM)): partially reverting dystrophic morphology profiles
Htt-Q138 aggregate formation (effect in words) [2]: rescue aggregate formation

CO[C@H]1C[C@@H]2CC[C@@H](C)[C@@](O)(O2)C(=O)C(=O)N2CCCC[C@H]2C(=O)O[C@H]([C@H](C)C[C@@H]2CC[C@@H](O)[C@H](OC)C2)CC(=O)[C@H](C)/C=C(\C)[C@@H](O)[C@@H](OC)C(=O)[C@H](C)C[C@H](C)/C=C/C=C/C=C/1C [Rapamycin]
Neurotoxic properties / morphological defects in cultures ([1]; primary neural cultures): reduced axon outgrowth, neuromere size, and suppressed GFP expression

O=C(Nc1ccc(Br)cc1)c1cccc(S(=O)(=O)Nc2ccc(Br)cc2)c1 [C2-8]
Neurotoxic properties / morphological defects in cultures [1]: reduced axon outgrowth, neuromere size, and suppressed GFP expression
Morphology profiles of Q138 expressing neurons (effect in words) [1]: none reverted the morphology profiles of Q138 expressing neurons towards normal
Htt-Q138 aggregation (effect in words) [2]: reduced Htt-Q138 aggregation

C[C@@H]1C[C@H]2O[C@@H]2/C=C\C=C\C(=O)Cc2c(Cl)c(O)cc(O)c2C(=O)O1 [Radicicol]
Neurotoxic properties / morphological defects in cultures [1]: reduced axon outgrowth, neuromere size, and suppressed GFP expression
Morphology profiles of Q138 expressing neurons (effect in words) [1]: none reverted the morphology profiles of Q138 expressing neurons towards normal
Htt-Q138 aggregation (effect in words) [2]: reduced Htt-Q138 aggregation
